From patent US20080300243A1, “Amide Derivatives as Ion-Channel Ligands and Pharmaceutical Compositions and Methods of Using the Same” (priority 2005, published 2008)

Columns and labels:
VR1 [1] = target: T1, VR1 (Homo sapiens, UniProt Q8NER1); assay: Acid stimulation assay (FDSS 6000); type: cell-based; set-up: host or cells: unspecified cell suspension; conditions: final assay buffer pH5.8, 15 min pre-incubation
Experimental: The Acid-induced changes in the intracellular calcium concentration were monitored using FDSS 6000 (Hamamatsu Photonics, Japan), a fluorometric imaging system. The cell suspension in resting buffer (HBSS supplemented with […], pH 7.4) was pre-incubated with varying concentrations of the test compounds or resting buffer (buffer control) for 15 minutes at room temperature under dark conditions. The cells were automatically added the stimulating solution (HBSS supplemented with MES, final assay buffer pH5.8) by the FDSS 6000.
Target sequence in this assay (Q8NER1 whole entry, species assumed): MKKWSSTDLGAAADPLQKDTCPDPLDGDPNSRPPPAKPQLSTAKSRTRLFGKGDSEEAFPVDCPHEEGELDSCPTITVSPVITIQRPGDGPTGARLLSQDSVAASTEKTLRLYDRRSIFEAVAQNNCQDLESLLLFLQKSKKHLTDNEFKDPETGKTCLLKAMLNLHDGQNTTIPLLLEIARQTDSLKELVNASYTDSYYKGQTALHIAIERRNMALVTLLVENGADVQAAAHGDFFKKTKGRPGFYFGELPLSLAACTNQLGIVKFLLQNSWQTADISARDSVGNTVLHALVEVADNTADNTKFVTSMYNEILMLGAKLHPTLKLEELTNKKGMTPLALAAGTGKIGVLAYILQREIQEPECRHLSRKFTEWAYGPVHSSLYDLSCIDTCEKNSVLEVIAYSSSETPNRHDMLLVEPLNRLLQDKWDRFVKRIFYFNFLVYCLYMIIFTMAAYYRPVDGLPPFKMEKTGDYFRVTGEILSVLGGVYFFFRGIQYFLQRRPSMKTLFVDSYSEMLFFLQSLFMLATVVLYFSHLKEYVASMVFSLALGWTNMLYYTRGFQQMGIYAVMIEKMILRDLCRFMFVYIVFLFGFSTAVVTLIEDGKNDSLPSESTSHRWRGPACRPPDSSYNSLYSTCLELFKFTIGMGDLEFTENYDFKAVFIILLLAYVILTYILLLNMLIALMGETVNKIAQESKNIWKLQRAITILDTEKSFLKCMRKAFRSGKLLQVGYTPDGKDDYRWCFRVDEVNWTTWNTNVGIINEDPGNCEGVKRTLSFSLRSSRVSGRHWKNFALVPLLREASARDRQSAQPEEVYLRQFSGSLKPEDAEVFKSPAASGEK

VR1 [2] = target: T1, VR1; assay: Calcium uptake assay, low pH (proton) stimulus; type: cell-based; set-up: expressed in transfected cells; host or cells: T-REx HEK 293 (Invitrogen), pcDNA5/TO vector; conditions: HEK293; 0.3 μM compound; low pH agonist; HEK 293 cells expressing hVR1; read-out: Low pH % Inhib. @ 0.3 μM
Target sequence in this assay (Q8NER1 whole entry): as the sequence (Q8NER1 whole entry, species assumed) above

VR1 [3] = target: T1, VR1; assay: Calcium uptake assay, capsaicin stimulus; type: cell-based; set-up: expressed in transfected cells; host or cells: T-REx HEK 293 (Invitrogen), pcDNA5/TO vector; conditions: 3 nM compound
Target sequence in this assay (Q8NER1 whole entry): as the sequence (Q8NER1 whole entry, species assumed) above

[4] = Half-life in human liver microsomes (HLM); type: in vitro ADME; conditions: human, human liver microsomes (HLM, HL101), pH 7.4; 1 μM compound, 0.78 mg/mL HLM, 37° C., NADPH
Experimental: Test compounds (1 μM) were incubated with 3.3 mM MgCl2 and 0.78 mg/mL HLM (HL101) in 100 mM potassium phosphate buffer (pH 7.4) at 37° C. on the 96-deep well plate. The reaction mixture was split into two groups, a non-P450 and a P450 group. NADPH was only added to the reaction mixture of the P450 group. An aliquot of samples of P450 group was collected at 0, 10, 30, and 60 min time point, where 0 min time point indicated the time when NADPH was added into the reaction mixture of P450 group. An aliquot of samples of non-P450 group was collected at −10 and 65 min time point. Collected aliquots were extracted with acetonitrile solution containing an internal standard. The precipitated protein was spun down in centrifuge (2000 rpm, 15 min). The compound concentration in supernatant was measured by LC/MS/MS system.
The half-life value was obtained by plotting the natural logarithm of the peak area ratio of compounds/internal standard versus time. The slope of the line of best fit through the points yields the rate of metabolism (k). This was converted to a half-life value using following equations:
Exemplary compounds of the invention were tested (1 μM), and were incubated with 3.3 mM MgCl2 and 0.78 mg/mL HLM (HL101) in 100 mM potassium phosphate buffer (pH 7.4) at 37° C. on the 96-deep well plate. The reaction mixture was split into two groups, a non-P450 and a P450 group. NADPH was only added to the reaction mixture of the P450 group. An aliquot of samples of the P450 group was collected at 0, 10, 30, and 60 minute time points, where the 0 minute time point indicated the time when NADPH was added into the reaction mixture of the P450 group. An aliquot of samples of the non-P450 group was collected at −10 and 65 minute time points. Collected aliquots were extracted with an acetonitrile solution containing an internal standard. The precipitated protein was spun down in a centrifuge (2000 rpm, 15 rain). The compound concentration in supernatant was measured by LC/MS/MS system. The half-life value (T1/2) was obtained by plotting the natural logarithm of the peak area ratio of compounds/internal standard versus time. The slope of the line of best fit through the points yields the rate of metabolism (k). This was converted to a half-life value using following equations: Half-life=ln 2/k.

Compound	IC50 (VR1 [1])	inhibition at 0.3 µM (VR1 [2])	inhibition of the Capsaicin induced intracellular calcium response (FIGS. 2-6) (VR1 [3])	half-life at 1 μM [4]
CC(C)(C)C#Cc1ccc(C(=O)Nc2ccc3c(c2)OC[C@@H](CO)N3)c(F)c1 [Compound 170]	3 nM	108%	–	–
Cc1cc(/C=C/C(F)(F)F)ccc1C(=O)Nc1cnc2ccccc2c1 [Compound 187]	3 nM	98%	significant inhibition	568 min
Cc1cc(/C=C/C(F)(F)F)ccc1C(=O)Nc1cnc2c(c1)OCC(CO)N2 (stereo not drawn) [Compound 233]	3 nM	100%	significant inhibition	–
O=C(Nc1ccc2c(c1)OCC(CO)N2)c1ccc(C#CC2CC2)cc1F (stereo not drawn) [Compound 127]	5 nM	100%	–	82.2 min
O=C(Nc1cccc2cnccc12)c1ccc(C#CC(F)(F)F)cc1 [Compound 45]	1 nM	99%	significant inhibition	1.2 min
CC(C)(C)C#Cc1ccc(C(=O)Nc2ccc3c(c2)OCC(CO)N3)c(F)c1 (stereo not drawn) [Compound 138]	3 nM	107%	–	–
Cc1cc(C#CC(C)(C)C)ccc1C(=O)Nc1ccc2[nH]cnc2c1 [Compound 214]	3 nM	74%	–	–
Cc1cc(C#CC(C)(C)C)ccc1C(=O)Nc1ccc2sc(CO)nc2c1 [Compound 197, N-(2-(hydroxymethyl)benzo[d]thiazol-5-yl)-2-methyl-4-(3,3-dimethylbut-1-ynyl)benzamide]	3 nM	107%	–	–
Cc1cc(/C=C/C(F)(F)F)ccc1C(=O)Nc1ccc2c(c1)OC[C@H](CO)N2 [Compound 195]	3 nM	60%	–	–
CC(C)(C)C#Cc1ccc(C(=O)Nc2ccc3c(c2)OCC(CO)N3)c(Cl)c1 (stereo not drawn) [Compound 158]	–	107%	–	85.8 min
Cc1cc(C#CC(C)(C)C)ccc1C(=O)Nc1ccc2c(c1)OC[C@H](CO)N2 [Compound 194]	3 nM	102%	–	–
Cc1cc(C#CC2CC2)ccc1C(=O)Nc1ccc2c(c1)OCC(CO)N2 (stereo not drawn) [Compound 124]	–	112%	–	60.6 min
Cc1cc(C#CC2CCCC2)ccc1C(=O)Nc1ccc2c(c1)OCC(CO)N2 (stereo not drawn) [Compound 125]	–	112%	–	40.2 min
O=C(Nc1ccc2c(c1)OCC(CO)N2)c1ccc(/C=C/C(F)(F)F)cc1 (stereo not drawn) [Compound 111]	5 nM	116%	–	45 min
Cc1cc(/C=C/C(F)(F)F)ccc1C(=O)Nc1ccc2cc(CO)cnc2c1 [Compound 228]	–	100%	–	76.2 min
CN1CCCc2ccc(NC(=O)c3ccc(C#CC(C)(C)C)cc3)cc21 [Compound 74]	–	119%	–	73.2 min
Cc1cc(/C=C/C(C)(C)C)ccc1C(=O)Nc1cnc2ccccc2c1 [Compound 210]	3 nM	106%	–	–
Cc1cc(C#CC(C)(C)C)ccc1C(=O)Nc1ccc2c(c1)OCC(CO)N2 (stereo not drawn) [Compound 167]	7 nM	107%	significant inhibition	–
O=C(Nc1ccc2c(c1)OC[C@@H](CO)O2)c1ccc(/C=C/C(F)(F)F)cc1 [Compound 107]	5 nM	116%	–	–
Cc1nc2cc(NC(=O)c3ccc(C#CC(C)(C)C)cc3C)ccc2s1 [Compound 162]	–	89%	–	85.8 min
O=C(Nc1ccc2c(c1)OCC(CO)N2)c1ccc(/C=C/C(F)(F)F)cc1Cl (stereo not drawn) [Compound 157]	–	107%	–	82.2 min
Cc1nc2cc(NC(=O)c3ccc(C#CC(F)(F)F)cc3)ccc2s1 [Compound 52]	–	101%	–	1.8 min

Compound	IC50 (VR1 [1])	inhibition at 0.3 µM (VR1 [2])	inhibition of the Capsaicin induced intracellular calcium response (FIGS. 2-6) (VR1 [3])	half-life at 1 μM [4]
Cc1cc(/C=C/C(F)(F)F)ccc1C(=O)Nc1ccc2c(c1)OCCN2 [Compound 118]	5 nM	103%	–	61.8 min
Cc1cc(C#CC(C)(C)C)ccc1C(=O)Nc1ccc2c(c1)OC[C@@H](CO)N2 [Compound 184]	–	102%	–	38.4 min
COc1c(C#CC(C)(C)C)ccc(C(=O)Nc2cccc3cnccc23)c1F [Compound 176]	4 nM	89%	–	–
CC(C)(C)C#Cc1ccc(C(=O)Nc2cnc3ccccc3c2)c(Cl)c1 [Compound 164]	–	105%	–	122 min
CC(C)(C)C#Cc1ccc(C(=O)Nc2ccc3c(c2)OC[C@H](CO)N3)c(F)c1 [Compound 172]	3 nM	109%	–	74.4 min
O=C(Nc1ccc2c(c1)OCC(CO)N2)c1ccc(/C=C/C(F)(F)F)cc1F (stereo not drawn) [Compound 144]	–	105%	–	70.8 min
O=C(Nc1ccc2c(c1)OC[C@H](CO)N2)c1ccc(/C=C/C(F)(F)F)cc1F [Compound 193]	3 nM	103%	–	–
O=C(Nc1ccc2c(c1)OCC(CO)N2)c1c(F)cc(C#CC2CC2)cc1F (stereo not drawn) [Compound 129]	–	104%	–	103 min
O=C(Nc1cccc2cnccc12)c1ccc(/C=C/C(F)(F)F)cc1 [Compound 35]	2.5 nM	106%	–	29.4 min
O=C(Nc1cccc2cnccc12)c1ccc(C#CC2CC2)cc1 [Compound 48]	–	99%	–	19.8 min
COc1cc(/C=C/C(F)(F)F)ccc1C(=O)Nc1ccc2c(c1)OCCN2 [Compound 122]	–	19%	–	75 min
CCOc1cc(C(=O)Nc2cccc3cnccc23)ccc1C#CC(C)(C)C [Compound 65]	–	109%	–	25.2 min
Cc1cc(C#CC(C)(C)C)ccc1C(=O)Nc1cccc2cnccc12 [Compound 163]	–	98%	–	69.6 min
CN1CCCc2ccc(NC(=O)c3ccc(/C=C/C(F)(F)F)cc3)cc21 [Compound 79]	–	98%	–	79.8 min
Cc1cc(C#CC(C)(C)C)ccc1C(=O)Nc1ccc2scnc2c1 [Compound 198, N-(benzo[d]thiazol-5-yl)-2-methyl-4-(3,3-dimethylbut-1-ynyl)benzamide]	3 nM	101%	–	–
CC(C)(C)C#Cc1cc(F)c(C(=O)Nc2cccc3cnccc23)c(F)c1 [Compound 166]	8 nM	99%	–	–
O=C(Nc1ccc2c(c1)OCCN2)c1ccc(/C=C/C(F)(F)F)cc1F [Compound 134]	–	108%	–	93.6 min
COc1cc(/C=C/C(F)(F)F)ccc1C(=O)Nc1ccc2c(c1)OCCO2 [Compound 123]	–	19%	–	113 min
O=C(Nc1ccc2c(c1)OC[C@H](CO)O2)c1ccc(C#CC2CC2)cc1 [Compound 103]	–	92%	–	18.6 min
C/C(=C\c1ccc(C(=O)Nc2ccc3c(c2)OCCN3)cc1)C(F)(F)F [Compound 93]	–	105%	–	39 min
Cc1cc(/C=C/C(F)(F)F)ccc1C(=O)Nc1ccc2c(c1)OCC(CO)N2 (stereo not drawn) [Compound 131]	–	104%	–	118 min
Cc1nc2cc(NC(=O)c3ccc(/C=C/C(F)(F)F)cc3C)ccc2s1 [Compound 188]	–	83%	–	80.4 min
